Assay results published in patent publication US9006241B2, “Pyrimidine derivatives” (Noviga Research AB, priority 2011, dated 2015).

Key:
Type in all cases: cell-based
[1] = tested on: CCRF-CEM cancer cells - leukemia; experiment: Fluorometric Microculture Cytotoxicity Assay (FMCA), CCRF-CEM; conditions: Homo sapiens, 72 h incubation
[2] = tested on: CEM/VM1 (teniposide-resistant leukemia); experiment: FMCA, CEM/VM1; conditions: Homo sapiens, CEM/VM1 teniposide-resistant leukemia cells
Excerpt: (§1) The Fluorometric Microculture Cytotoxicity Assay, FMCA (Larsson, R., et al.; Anticancer Res, 1989, 9, 1111-1119), is a three day non-clonogenic microplate-based cell viability assay used for measurement of the cytotoxic and/or cytostatic effect of compounds in vitro (Lindhagen, E. et al.; Nat. Protoc., 2008, 3, 1364-1369). FMCA represents a valuable method to measure cytotoxicity in a number of cell types, both cell lines and primary cells from patients (Larsson, R., et al.; Int. J. Cancer, 1992, 50, 177-185; Fridborg, H., et al.; Eur. J. Cancer, 1999. 35, 424-432; Dhar, S., et al.; Br. J. Cancer, 1996, 74, 888-896).
(§2) FMCA is based on the principle that fluorescein diacetate (FDA) is converted to the fluorescent probe fluorescein by esterases in the plasma membranes of living cells. For experiments, 96 or 384-well microplates are prepared with compounds and stored at −70° C. until use. Cells are then seeded into the drug-prepared plates and placed in an incubator for 72 h. On the last day of incubation, the plates are washed and a buffer containing FDA is added and incubated with the cells for 45 minutes. Finally the fluorescence per well is measured in a fluorometer and a Survival Index % (SI) for each compound-treated well is calculated with the equation: Compound-treated cells minus blank divided by control cells minus blank. A high SI-value indicates a large percentage of living cells and vice versa.
(§3) For dose-response experiments, 384-well plates were prepared as follows:
(§4) Compounds of the invention as well comparative kinase inhibitors sorafenib sunitinib, dasatinib, pazopanib and a reference compound disclosed in WO 2009/071535 (compound #107) were diluted with PBS to a concentration ten-times higher than the desired starting concentration. Then, a Biomek 2000 liquid handling system was employed to serially dilute the compounds in a deep-well 384-well plate. From this plate, assay plates containing 5 μl compound per well were prepared with the Biomek 2000. Certain compounds precipitated when diluted with PBS, and these compounds were therefore prepared in a 96-well plate manually as described above using culture medium RPMI 1640 instead of PBS.
(§5) The compounds were also tested at five concentrations, with five times serial dilution on the following cell types: CCRF-CEM, hTERT-RPE1 (normal retinal epithelial cells), hRPTEpiC (normal renal cells), and peripheral blood mononuclear cells (PBMC). Each experiment was performed three times, except for PBMC and hRPTEpiC, which were performed twice. SI-values were calculated, graphs were plotted using GraphPadPrism 5.0 (GraphPad Software Inc. La Jolla, Calif.) and IC50-values for each cell type and compound were determined from the curves.
(§6) The compounds of the invention were also tested on further cancer cell lines related to breast cancer (MDA-MB-231; see e.g. Cailleau, R., et al.; J. Natl. Cancer Inst., 1974, 53, 661-674), teniposide-resistant leukemia (CEM/VM1 see e.g. Danks, M., et al.; Cancer Res., 1987, 47, 1297-1301), leukemia (HL-60; see e.g. Collins, S., et al.; Nature, 1977, 270, 347-349), doxorubicin-resistant lung cancer (H69AR; see e.g. Mirski, S., et al.; Cancer Res., 1987, 47, 2594-2598), myeloma (RPMI 8226; see e.g. Matsuoka, Y., et al.; Proc. Soc. Exp. Biol. Med., 1967, 125, 1246-1250), doxorubicin-resistant myeloma (8226/Dox40; see e.g. Dalton, W., et al.; Blood, 1989, 15, 747-752), lymphoma (U-937, see e.g. Sundström, C., et al.; Int. J. Cancer, 1976, 17, 565-577), vincristin-resistant lymphoma (U-937-vcr; see e.g. Botling, J., et al.; Int. J. Cancer, 1994, 58, 269-274), ovarian cancer (A2780; see e.g. Hamilton, T., et al.; Semin. Oncol., 1984, 11, 285-298), doxorubicin-resistant ovarian cancer (A2780/Adr), cisplatin-resistant ovarian cancer (A2780/Cis; see e.g. Behrens, B., et al. Cancer Res. 1987, 47, 414-418), pancreatic cancer (PANC-1, BxPC-3, and MIA PaCa-2; see e.g. Lieber, M., et al.; Int. J. Cancer, 1975, 15, 741-747; Loor, R., et al.; Clin. Lab. […]

[3] = tested on: H69AR (doxorubicin-resistant lung cancer); experiment: FMCA, H69AR; conditions: Homo sapiens, H69AR doxorubicin-resistant lung cancer cells
Excerpt: as §1, §2, §3, §4, §5, §6

RPMI 8226 (myeloma) = experiment: FMCA, RPMI 8226; conditions: Homo sapiens, RPMI 8226 myeloma cells
Excerpt: as §1, §2, §3, §4, §5, §6

[4] = tested on: 8226/Dox40 (doxorubicin-resistant myeloma); experiment: FMCA, 8226/Dox40; conditions: 8226/Dox40 doxorubicin-resistant myeloma cells
Excerpt: as §1, §2, §3, §4, §5, §6

U-937 (lymphoma) = experiment: FMCA, U-937; conditions: Homo sapiens, U-937 lymphoma cells
Excerpt: as §1, §2, §3, §4, §5, §6

[5] = tested on: U-937-vcr (vincristin-resistant lymphoma); experiment: FMCA, U-937-vcr; conditions: U-937-vcr vincristin-resistant lymphoma cells
Excerpt: as §1, §2, §3, §4, §5, §6

A2780 (ovarian cancer) = experiment: FMCA, A2780; conditions: Homo sapiens, A2780 ovarian cancer cells
Excerpt: as §1, §2, §3, §4, §5, §6

[6] = tested on: A2780/Adr (doxorubicin-resistant ovarian cancer); experiment: FMCA, A2780/Adr; conditions: A2780/Adr doxorubicin-resistant ovarian cancer cells
Excerpt: as §1, §2, §3, §4, §5, §6

[7] = tested on: A2780/Cis (cisplatin-resistant ovarian cancer); experiment: FMCA, A2780/Cis; conditions: A2780cis, A2780/Cis cisplatin-resistant ovarian cancer cells
Excerpt: as §1, §2, §3, §4, §5, §6

EC50 [2]: 0.064 µM | EC50 [3]: 0.17 µM | EC50 (RPMI 8226 (myeloma)): 0.17 µM | EC50 [4]: 0.2 µM | EC50 (U-937 (lymphoma)): 0.08 µM | EC50 [5]: 0.046 µM | EC50 (A2780 (ovarian cancer)): 0.21 µM | EC50 [6]: 0.82 µM | EC50 [7]: 0.2 µM
Compound: Cc1ccc2[nH]cc(CCNc3nccc(Nc4ccc5[nH]c(C)cc5c4)n3)c2c1 [Example 9, N^2-[2-(5-methyl-1H-indol-3-yl)ethyl]-N^4-(2-methyl-1H-indol-5-yl)pyrimidine-2,4-diamine]
EC50 [1]: 0.038 µM
